The nature of data set [1]: Test B: Cytotoxicity Assay. The class given is cell-based. Particulars: human; uninfected MT-4 cells, same protocol as Test A, 5 days. As for the experimental part:
(§1) MT-4 cells were next mixed with HIV-IIIb at an m.o.i of 0.003 for 1 hour, after which time 35 μL of virus/cell mixture (2000 cells) was immediately added to each well containing 40 μL of diluted compound. The plates were then incubated at 37° C. for 5 days. […] Cell lysis was carried out by incubating at room temperature for 10 min and then chemiluminescence was read.
(§2) Test B: Cytotoxicity Assay
(§3) Compound cytotoxicity and the corresponding CC50 values was determined using the same protocol as described in the antiviral assay (Test A) except that uninfected cells were used.

The subject of another data set is HIV-IIIb. Put plainly: Test A: Antiviral Assay in MT4 Cells. The class given is cell-based, HIV-1. The note with it: MT-4 cells infected with HIV-IIIb, 5 days, calculated from the dose response curve, values above 100 normalized to 100%; for inhibition at 0.2 µM / inhibition at 2 µM: Human immunodeficiency virus 1, IIIB, MT4, 120 h; for inhibition at 0.2 µM: read-out: % inhibition at 0.2 μM (percent inhibition of virus-induced cell killing), 0.2 μM drug concentration; for inhibition at 2 µM: read-out: % inhibition at 2 μM (percent inhibition of virus-induced cell killing), 2 μM drug concentration; for % inhibition at 0.2 μM (percent inhibition of virus-induced cell killing): 0.2 μM drug concentration; for % inhibition at 2 μM (percent inhibition of virus-induced cell killing): 2 μM drug concentration. The protocol: Test A: Antiviral Assay in MT4 Cells
as §1
The data above represent an average over time of each assay for each compound. […] Thus, the data reported in the tables include the data reported in the priority document, as well as data from assays run in the intervening period.

Another data set deals with uninfected MT-4 cells. Nature of the data set: Test B: Cytotoxicity Assay. The class given is cell-based. The protocol:
as §1, §2, §3

Like-named read-outs stand apart in the source and are kept apart here.

In data set [1], `Cn1nc(NS(C)(=O)=O)c2cccc(-c3ccc(C#C[C@@H](N)CO)nc3[C@H](Cc3cc(F)cc(F)c3)NC(=O)Cn3nc(C(F)(F)F)c4c3C(F)(F)[C@@H]3C[C@H]43)c21` [Compound 59B, N—((S)-1-(6-((R)-3-amino-4-hydroxybut-1-yn-1-yl)-3-(1-methyl-3-(methylsulfonamido)-1H-indazol-7-yl)pyridin-2-yl)-2-(3,5-difluorophenyl)ethyl)-2-((3bS,4aR)-5,5-difluoro-3-(trifluoromethyl)-3b,4,4a,5-tetrahydro-1H-cyclopropa[3,4]cyclopenta[1,2-c]pyrazol-1-yl)acetamide] came in with a CC50 at 5 days of 22.4 µM. For the same compound, in the data set on HIV-IIIb, the inhibition at 0.2 µM is 94% and the inhibition at 2 µM is 94%.
As to `Cn1cc(-c2ccc(-c3ccc(Cl)c4c(NS(C)(=O)=O)nn(C)c34)c([C@H](Cc3cc(F)cc(F)c3)NC(=O)Cn3nc(C(F)(F)F)c4c3C(F)(F)[C@@H]3C[C@H]43)n2)cn1` [Compound 173, N—((S)-1-(3-(4-chloro-1-methyl-3-(methylsulfonamido)-1H-indazol-7-yl)-6-(1-methyl-1H-pyrazol-4-yl)pyridin-2-yl)-2-(3,5-difluorophenyl)ethyl)-2-((3bS,4aR)-5,5-difluoro-3-(trifluoromethyl)-3b,4,4a,5-tetrahydro-1H-cyclopropa[3,4]cyclopenta[1,2-c]pyrazol-1-yl)acetamide], the CC50 at 5 days in data set [1] was > 43.7 µM. Moreover, in the data set with HIV-IIIb, the inhibition at 0.2 µM was 92% and the inhibition at 2 µM is 92%.
In the case of `CC(C)(O)C#Cc1ccc(-c2cccc3c(N)n[nH]c23)c([C@H](Cc2cc(F)cc(F)c2)NC(=O)Cn2nc(C(F)(F)F)c3c2C(F)(F)[C@@H]2C[C@H]32)n1` [Compound 29B, N—((S)-1-(3-(3-amino-1H-indazol-7-yl)-6-(3-hydroxy-3-methylbut-1-yn-1-yl)pyridin-2-yl)-2-(3,5-difluorophenyl)ethyl)-2-((3bS,4aR)-5,5-difluoro-3-(trifluoromethyl)-3b,4,4a,5-tetrahydro-1H-cyclopropa[3,4]cyclopenta[1,2-c]pyrazol-1-yl)acetamide], in data set [1], the CC50 at 5 days stood at 15.3 µM. Besides, in the data set with HIV-IIIb, the inhibition at 0.2 µM is 80% and the inhibition at 2 µM was 81%.
The corresponding values for `COc1cc(-c2ccc(Cl)c3c(NS(C)(=O)=O)nn(C)c23)c([C@H](Cc2cc(F)cc(F)c2)NC(=O)Cn2nc(C(F)(F)F)c3c2C(F)(F)[C@@H]2C[C@H]32)nc1C#CC(C)(C)O` [Compound 135B, N—((S)-1-(3-(4-chloro-1-methyl-3-(methylsulfonamido)-1H-indazol-7-yl)-6-(3-hydroxy-3-methylbut-1-yn-1-yl)-5-methoxypyridin-2-yl)-2-(3,5-difluorophenyl)ethyl)-2-((3bS,4aR)-5,5-difluoro-3-(trifluoromethyl)-3b,4,4a,5-tetrahydro-1H-cyclopropa[3,4]cyclopenta[1,2-c]pyrazol-1-yl)acetamide] are 14.2 µM, 93% and 93%.
The corresponding values for `CC(C)(C)C#Cc1ccc(-c2cccn3c(NS(C)(=O)=O)nnc23)c([C@H](Cc2cc(F)cc(F)c2)NC(=O)Cn2nc(C(F)F)c3c2C(F)(F)[C@@H]2C[C@H]32)n1` [Compound 134, 2-((3bS,4aR)-3-(difluoromethyl)-5,5-difluoro-3b,4,4a,5-tetrahydro-1H-cyclopropa[3,4]cyclopenta[1,2-c]pyrazol-1-yl)-N—((S)-2-(3,5-difluorophenyl)-1-(6-(3,3-dimethylbut-1-yn-1-yl)-3-(3-(methylsulfonamido)-[1,2,4]triazolo[4,3-a]pyridin-8-yl)pyridin-2-yl)ethyl)acetamide] are 28 µM, 82% and 83%.
The corresponding values for `Cc1ccc(-c2ccc(C#CC(C)(C)O)nc2[C@H](Cc2cc(F)cc(F)c2)NC(=O)Cn2nc(C(F)F)c3c2C(F)(F)[C@@H]2C[C@H]32)c2c1c(NS(N)(=O)=O)nn2C` [Compound 71, 2-((3bS,4aR)-3-(difluoromethyl)-5,5-difluoro-3b,4,4a,5-tetrahydro-1H-cyclopropa[3,4]cyclopenta[1,2-c]pyrazol-1-yl)-N—((S)-2-(3,5-difluorophenyl)-1-(3-(1,4-dimethyl-3-(sulfamoylamino)-1H-indazol-7-yl)-6-(3-hydroxy-3-methylbut-1-yn-1-yl)pyridin-2-yl)ethyl)acetamide] are 9.51 µM, 87% and 87%.
For `Cn1nc(NS(C)(=O)=O)c2c(Cl)ccc(-c3ccc(C#CC(C)(C)N)nc3[C@H](Cc3cc(F)cc(F)c3)NC(=O)Cn3nc(C(F)F)c4c3C(F)(F)[C@@H]3C[C@H]43)c21` [Compound 128B, N—((S)-1-(6-(3-amino-3-methylbut-1-yn-1-yl)-3-(4-chloro-1-methyl-3-(methylsulfonamido)-1H-indazol-7-yl)pyridin-2-yl)-2-(3,5-difluorophenyl)ethyl)-2-((3bS,4aR)-3-(difluoromethyl)-5,5-difluoro-3b,4,4a,5-tetrahydro-1H-cyclopropa[3,4]cyclopenta[1,2-c]pyrazol-1-yl)acetamide], the cytotoxic concentration (CC50) with uninfected MT-4 cells (uninfected MT-4 cells, same protocol as Test A, 5 days, read-out: CC50) was 4.18 µM. Moreover, in the data set with HIV-IIIb, the “% inhibition at 0.2 μM (percent inhibition of virus-induced cell killing)” value was 93% and the “% inhibition at 2 μM (percent inhibition of virus-induced cell killing)” value is 94%.
In data set [1], `Cn1nc(NS(C)(=O)=O)c2c(Cl)ccc(-c3ccc(-c4ccccn4)nc3[C@H](Cc3cc(F)cc(F)c3)NC(=O)Cn3nc(C(F)(F)F)c4c3C(F)(F)[C@@H]3C[C@H]43)c21` [Compound 172, N—((S)-1-(5-(4-chloro-1-methyl-3-(methylsulfonamido)-1H-indazol-7-yl)-[2,2′-bipyridin]-6-yl)-2-(3,5-difluorophenyl)ethyl)-2-((3bS,4aR)-5,5-difluoro-3-(trifluoromethyl)-3b,4,4a,5-tetrahydro-1H-cyclopropa[3,4]cyclopenta[1,2-c]pyrazol-1-yl)acetamide] had a CC50 at 5 days of 0.061 µM.
Take “N—((S)-1-(3-(3-chloro-1H-benzofuro[3,2-c]pyrazol-5-yl)-6-(3-hydroxy-3-methylbut-1-yn-1-yl)pyridin-2-yl)-2-(3,5-difluorophenyl)-2-((3bS,4aR)-5,5-difluoro-3-(trifluoromethyl)-3b,4,4a,5-tetrahydro-1H-cyclopropa[3,4]cyclopenta[1,2-c]pyrazol-1-yl)acetamide [Compound 113D]”: in the data set with uninfected MT-4 cells, it took 1.09 µM to reach half-maximal cytotoxicity (CC50). The “% inhibition at 2 μM (percent inhibition of virus-induced cell killing)” value in the data set on HIV-IIIb is reported as 97%.
The compound `Cn1nc(NS(C)(=O)=O)c2c(Cl)ccc(-c3ccc(C#CC(C)(C)O)nc3[C@H](Cc3cc(F)cc(F)c3)NC(=O)Cn3nc(N)c4c3C(F)(F)[C@@H]3C[C@H]43)c21` [Compound 148B, 2-((3bS,4aR)-3-amino-5,5-difluoro-3b,4,4a,5-tetrahydro-H-cyclopropa[3,4]cyclopenta[1,2-c]pyrazol-1-yl)-N—((S)-1-(3-(4-chloro-1-methyl-3-(methylsulfonamido)-1H-indazol-7-yl)-6-(3-hydroxy-3-methylbut-1-yn-1-yl)pyridin-2-yl)-2-(3,5-difluorophenyl)ethyl)acetamide] registered a CC50 in the data set with uninfected MT-4 cells of 23.3 µM. In the data set with HIV-IIIb, the “% inhibition at 0.2 μM (percent inhibition of virus-induced cell killing)” value was 83% and the “% inhibition at 2 μM (percent inhibition of virus-induced cell killing)” value is 83%.
Take `CCC(O)C#Cc1ccc(-c2ccc(Cl)c3c(NS(C)(=O)=O)nn(C)c23)c([C@H](Cc2cc(F)cc(F)c2)NC(=O)Cn2nc(C(F)(F)F)c3c2C(F)(F)[C@@H]2C[C@H]32)n1` (stereo partly drawn) [Compound 145, N-((1S)-1-(3-(4-chloro-1-methyl-3-(methylsulfonamido)-1H-indazol-7-yl)-6-(3-hydroxypent-1-yn-1-yl)pyridin-2-yl)-2-(3,5-difluorophenyl)ethyl)-2-((3bS,4aR)-5,5-difluoro-3-(trifluoromethyl)-3b,4,4a,5-tetrahydro-1H-cyclopropa[3,4]cyclopenta[1,2-c]pyrazol-1-yl)acetamide]: in data set [1], the CC50 at 5 days came out at 8.69 µM. Besides, in the data set on HIV-IIIb, the inhibition at 0.2 µM was 99% and the inhibition at 2 µM is 99%.
